Conditions: Liquid, Vibrating tube method

CCCCCCCCCC [decane]
mass density [kg/m3]
Conditions	283.15 K	293.14 K
635 kPa	–	730.3
660 kPa	–	730.5
720 kPa	–	730.4
803 kPa	–	730.5
26776 kPa	755.1	–
26808 kPa	755.2	–
26844 kPa	755.1	–
26869 kPa	755.2	–
26895 kPa	755.3	–
26931 kPa	755.3	–
26952 kPa	755.2	–
26974 kPa	755.3	–
27007 kPa	755.3	–
27036 kPa	755.3	–
27058 kPa	755.3	–
27090 kPa	755.5	–
27112 kPa	755.3	–
27145 kPa	755.4	–
27171 kPa	755.4	–
27193 kPa	755.5	–
27219 kPa	755.3	–
27242 kPa	755.5	–
27268 kPa	755.6	–
27295 kPa	755.5	–
27321 kPa	755.4	–
27347 kPa	755.6	–
27373 kPa	755.5	–
27611 kPa	755.7	–
27638 kPa	755.7	–
27665 kPa	755.8	–
27700 kPa	755.7	–
27726 kPa	755.8	–
27749 kPa	755.7	–
27784 kPa	755.8	–
27818 kPa	755.8	–
27842 kPa	755.9	–
27876 kPa	755.9	–
27908 kPa	755.9	–
27935 kPa	755.9	–
27963 kPa	755.9	–
27990 kPa	755.9	–
28021 kPa	755.9	–
28049 kPa	755.9	–
28076 kPa	756	–
28113 kPa	756	–
28134 kPa	756	–
28171 kPa	756	–
28206 kPa	756	–
28227 kPa	756	–
28251 kPa	756.1	–
28288 kPa	756.1	–
28322 kPa	756.2	–
28344 kPa	756.1	–
28377 kPa	756	–
28409 kPa	756.2	–
28431 kPa	756.3	–
28463 kPa	756.1	–
28486 kPa	756.2	–
28515 kPa	756.3	–
28541 kPa	756.2	–
28571 kPa	756.3	–
28597 kPa	756.3	–
28616 kPa	756.2	–
28645 kPa	756.3	–
28678 kPa	756.4	–
28701 kPa	756.3	–
28728 kPa	756.4	–
28766 kPa	756.4	–
28792 kPa	756.5	–
28822 kPa	756.4	–
28845 kPa	756.5	–
28872 kPa	756.5	–
28899 kPa	756.5	–
28925 kPa	756.5	–
28952 kPa	756.4	–
28987 kPa	756.5	–
29014 kPa	756.5	–
29040 kPa	756.5	–
29067 kPa	756.5	–
29114 kPa	756.7	–
29141 kPa	756.6	–
29203 kPa	756.7	–
29251 kPa	756.7	–
29278 kPa	756.6	–
29309 kPa	756.6	–
29341 kPa	756.7	–
29368 kPa	756.7	–
29392 kPa	756.6	–
29424 kPa	756.7	–
29460 kPa	756.7	–
29484 kPa	756.8	–
29508 kPa	756.7	–
29555 kPa	756.8	–
29591 kPa	756.8	–
29652 kPa	756.9	–
29688 kPa	757	–
30170 kPa	757.2	–
30200 kPa	757.3	–
30225 kPa	757.3	–
30263 kPa	757.3	–
30301 kPa	757.1	–
30327 kPa	757.2	–
30365 kPa	757.4	–
30399 kPa	757.3	–
30425 kPa	757.3	–
30461 kPa	757.4	–
30487 kPa	757.4	–
30512 kPa	757.4	–
30539 kPa	757.4	–
30561 kPa	757.4	–
30603 kPa	757.4	–
30638 kPa	757.4	–
30664 kPa	757.4	–
30704 kPa	757.5	–
30740 kPa	757.4	–
30771 kPa	757.5	–
30836 kPa	757.5	–
30867 kPa	757.5	–
30893 kPa	757.6	–
30975 kPa	757.6	–
31003 kPa	757.6	–
31031 kPa	757.7	–
31062 kPa	757.8	–
31099 kPa	757.6	–
31136 kPa	757.6	–
31162 kPa	757.7	–
31187 kPa	757.9	–
31218 kPa	757.7	–
31253 kPa	757.8	–
31284 kPa	757.9	–
31310 kPa	757.9	–
31337 kPa	757.9	–
31363 kPa	757.8	–
31377 kPa	757.9	–
31402 kPa	757.9	–
31424 kPa	758	–
31441 kPa	758	–
31463 kPa	758	–
31492 kPa	758	–
31509 kPa	758	–
31566 kPa	757.9	–
31598 kPa	758	–
31615 kPa	758	–
31631 kPa	758	–
31657 kPa	758.2	–
31680 kPa	758	–
31697 kPa	758.1	–
31724 kPa	758.2	–
31749 kPa	758.2	–
31769 kPa	758.1	–
31794 kPa	758.1	–
31815 kPa	758.3	–
31835 kPa	758.2	–
31855 kPa	758.3	–
31878 kPa	758.3	–
32055 kPa	758.2	–
32091 kPa	758.2	–
32141 kPa	758.3	–
32209 kPa	758.4	–
32230 kPa	758.4	–
32248 kPa	758.4	–
32268 kPa	758.5	–
32289 kPa	758.5	–
32312 kPa	758.4	–
32330 kPa	758.4	–
32357 kPa	758.5	–
32378 kPa	758.5	–
32405 kPa	758.4	–
32427 kPa	758.6	–
32445 kPa	758.5	–
32465 kPa	758.5	–
32490 kPa	758.6	–
32511 kPa	758.4	–
32535 kPa	758.6	–
32559 kPa	758.5	–
32597 kPa	758.6	–
32618 kPa	758.6	–
32636 kPa	758.6	–
32655 kPa	758.6	–
32682 kPa	758.7	–
32708 kPa	758.8	–
32727 kPa	758.6	–
32746 kPa	758.7	–
32767 kPa	758.6	–
32793 kPa	758.6	–
32811 kPa	758.7	–
32827 kPa	758.8	–
32850 kPa	758.7	–
32869 kPa	758.7	–
32894 kPa	758.7	–
32922 kPa	758.8	–
32944 kPa	758.8	–
32966 kPa	758.7	–
32989 kPa	758.9	–
33018 kPa	758.8	–
33037 kPa	758.9	–
33062 kPa	758.7	–
33085 kPa	758.9	–
33107 kPa	758.9	–
33133 kPa	759	–
33155 kPa	758.9	–
33178 kPa	759	–
33200 kPa	759.1	–
33220 kPa	759	–
33249 kPa	759	–
33275 kPa	759	–
33295 kPa	759	–
33544 kPa	759.2	–
33573 kPa	759.1	–
33592 kPa	759.1	–
33621 kPa	759.2	–
33651 kPa	759.1	–
33667 kPa	759.3	–
33690 kPa	759.3	–
33707 kPa	759.1	–
33737 kPa	759.2	–
33761 kPa	759.3	–
33781 kPa	759.2	–
33805 kPa	759.2	–
33822 kPa	759.3	–
33852 kPa	759.2	–
33873 kPa	759.3	–
33897 kPa	759.2	–
33922 kPa	759.3	–
33943 kPa	759.4	–
33964 kPa	759.4	–
33982 kPa	759.3	–
34002 kPa	759.4	–
34022 kPa	759.4	–
34045 kPa	759.4	–
34063 kPa	759.5	–
34081 kPa	759.3	–
34104 kPa	759.4	–
34127 kPa	759.6	–
34148 kPa	759.4	–
34169 kPa	759.4	–
34195 kPa	759.5	–
34214 kPa	759.5	–
34237 kPa	759.6	–
34264 kPa	759.5	–
34311 kPa	759.6	–
34330 kPa	–	753.1
34339 kPa	759.5	–
34351 kPa	–	753.1
34359 kPa	759.6	–
34380 kPa	–	753.2
34400 kPa	–	753.1
34412 kPa	–	753.3
34420 kPa	–	753.2
34428 kPa	–	753.1
34437 kPa	–	753.2
34447 kPa	759.6	–
34451 kPa	–	753.2
34459 kPa	–	753.2
34471 kPa	–	753.2
34478 kPa	759.7	–
34481 kPa	–	753.1
34490 kPa	759.6	–
34491 kPa	–	753.1
34504 kPa	759.7	753.2
34514 kPa	759.7	–
34517 kPa	–	753.2
34527 kPa	–	753.2
34530 kPa	759.6	–
34537 kPa	–	753.3
34543 kPa	–	753.2
34544 kPa	759.7	–
34545 kPa	–	753.3
34551 kPa	759.7	–
34558 kPa	759.6	–
34561 kPa	759.7	–
34564 kPa	759.8	–
34567 kPa	759.6	–

Reference: the NIST ThermoML archive (doi:10.1021/je800110r)
